US9096601B2 (CSPC Zhongqi Pharmaceutical Technology (Shijiazhuang) Co., …, priority 2010, dated 2015)

Tests used:
[1] = molecular target: BTK (Homo sapiens (Human), UniProt Q06187); assay: Kinase inhibitory activity, isotopic labeling (γ-33P-ATP); type: biochemical; details: compound at 10 μM
Protocol: (§1) The object of this assay was to test the inventive compounds for the kinase inhibitory activity in vitro. In this assay, an isotopic labeling method was used to label the γ phosphate group on ATP. EGFR (including wild type, L858R mutant type and L858R/T790M double mutant type), VEGFR2, ALK, BTK, c-KIT, c-SRC, MET, PDGFRα and FLT3 kinases were tested in vitro for the activity inhibition. Staurosporine was used as a reference molecule (or referred to as a positive control). […] The IC50 value can be obtained by the calculation of the inhibitory rates at a series of different concentrations of the tested compounds.
(§2) To a reaction tube were successively added the buffer solution (8 mM MOPS, pH 7.0, 0.2 mM EDTA, 10 mM MnCl2), the kinase to be tested (5-10 mU) (EGFR/ALK/BTK/c-KIT/c-SRC/MET/PDGFRα/VEGFR2), the substrate for the kinase to be tested (a reference material), 10 mM of the solution of magnesium acetate and γ-^33 P-ATP, and different concentrations of the tested compounds. […] The reaction was terminated with […] of the 3% phosphate buffer solution. 10 μL of the reaction liquid was titrated on the Filtermat A membrane. The membrane was washed with 75 mM of the phosphate solution thrice (5 minutes each time), and then with methanol once, and finally dried. The membrane was subjected to a scintillation counting. The value of the scintillation counting reflected the phosphorylation level of the substrate and therefore could characterize the inhibition of the kinase activity.

[2] = molecular target: PDGFRα (Homo sapiens (Human), UniProt P16234); assay: as above; type: biochemical; details: compound at 10 μM
Protocol: as §1, §2

[3] = molecular target: MET (Homo sapiens (Human), UniProt P08581); assay: as above; type: biochemical; details: compound at 10 μM
Protocol: as §1, §2

[4] = molecular target: c-KIT (Homo sapiens (Human), UniProt P10721); assay: as above; type: biochemical; details: compound at 10 μM
Protocol: as §1, §2

[5] = molecular target: FLT3 (Homo sapiens (Human), UniProt P36888); assay: as above; type: biochemical; details: compound at 10 μM
Chain of FLT3 (P36888 27-993): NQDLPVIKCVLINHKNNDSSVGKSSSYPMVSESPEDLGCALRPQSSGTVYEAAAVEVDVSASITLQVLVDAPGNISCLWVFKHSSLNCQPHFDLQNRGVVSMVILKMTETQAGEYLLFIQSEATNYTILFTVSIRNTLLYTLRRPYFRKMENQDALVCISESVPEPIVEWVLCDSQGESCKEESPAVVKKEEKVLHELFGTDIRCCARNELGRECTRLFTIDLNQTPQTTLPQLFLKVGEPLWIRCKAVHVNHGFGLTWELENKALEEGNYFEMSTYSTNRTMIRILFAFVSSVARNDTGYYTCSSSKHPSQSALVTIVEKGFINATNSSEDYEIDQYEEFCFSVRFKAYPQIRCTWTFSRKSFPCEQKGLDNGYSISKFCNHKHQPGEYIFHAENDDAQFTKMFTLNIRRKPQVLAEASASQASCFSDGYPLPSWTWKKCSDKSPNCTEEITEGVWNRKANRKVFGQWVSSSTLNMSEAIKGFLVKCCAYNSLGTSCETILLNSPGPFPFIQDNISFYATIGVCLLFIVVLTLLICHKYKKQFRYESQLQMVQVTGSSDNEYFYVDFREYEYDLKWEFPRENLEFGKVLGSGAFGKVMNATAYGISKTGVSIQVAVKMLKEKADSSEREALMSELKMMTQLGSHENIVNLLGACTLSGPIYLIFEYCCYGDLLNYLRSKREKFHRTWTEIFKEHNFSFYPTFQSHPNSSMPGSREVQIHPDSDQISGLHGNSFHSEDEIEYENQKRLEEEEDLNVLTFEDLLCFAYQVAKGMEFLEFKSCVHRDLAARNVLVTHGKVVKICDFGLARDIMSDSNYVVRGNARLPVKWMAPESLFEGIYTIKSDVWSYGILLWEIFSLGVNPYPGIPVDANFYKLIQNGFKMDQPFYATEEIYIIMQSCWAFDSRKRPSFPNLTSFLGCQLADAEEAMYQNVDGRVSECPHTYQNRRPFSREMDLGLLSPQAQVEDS
Protocol: as §1, §2

[6] = molecular target: c-SRC (Homo sapiens (Human), UniProt P12931); assay: as above; type: biochemical; details: compound at 10 μM
Chain of c-SRC (P12931 whole entry, looked up): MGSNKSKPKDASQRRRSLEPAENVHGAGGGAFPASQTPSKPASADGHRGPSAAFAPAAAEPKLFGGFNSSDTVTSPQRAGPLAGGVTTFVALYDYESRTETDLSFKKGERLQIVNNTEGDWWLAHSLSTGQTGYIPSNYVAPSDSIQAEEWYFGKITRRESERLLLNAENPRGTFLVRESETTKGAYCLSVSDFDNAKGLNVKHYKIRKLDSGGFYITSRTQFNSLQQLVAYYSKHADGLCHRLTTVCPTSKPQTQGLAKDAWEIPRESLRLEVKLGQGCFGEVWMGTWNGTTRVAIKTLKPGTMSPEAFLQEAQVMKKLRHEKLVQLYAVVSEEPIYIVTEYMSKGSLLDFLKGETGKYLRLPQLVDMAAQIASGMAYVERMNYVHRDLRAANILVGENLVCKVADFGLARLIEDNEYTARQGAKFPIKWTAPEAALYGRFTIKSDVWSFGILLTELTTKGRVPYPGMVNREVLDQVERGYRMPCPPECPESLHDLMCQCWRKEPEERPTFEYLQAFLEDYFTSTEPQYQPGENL
Protocol: as §1, §2

[7] = molecular target: ALK (Homo sapiens (Human), UniProt Q9UM73); assay: as above; type: biochemical; details: compound at 10 μM
Chain of ALK (Q9UM73 19-1620): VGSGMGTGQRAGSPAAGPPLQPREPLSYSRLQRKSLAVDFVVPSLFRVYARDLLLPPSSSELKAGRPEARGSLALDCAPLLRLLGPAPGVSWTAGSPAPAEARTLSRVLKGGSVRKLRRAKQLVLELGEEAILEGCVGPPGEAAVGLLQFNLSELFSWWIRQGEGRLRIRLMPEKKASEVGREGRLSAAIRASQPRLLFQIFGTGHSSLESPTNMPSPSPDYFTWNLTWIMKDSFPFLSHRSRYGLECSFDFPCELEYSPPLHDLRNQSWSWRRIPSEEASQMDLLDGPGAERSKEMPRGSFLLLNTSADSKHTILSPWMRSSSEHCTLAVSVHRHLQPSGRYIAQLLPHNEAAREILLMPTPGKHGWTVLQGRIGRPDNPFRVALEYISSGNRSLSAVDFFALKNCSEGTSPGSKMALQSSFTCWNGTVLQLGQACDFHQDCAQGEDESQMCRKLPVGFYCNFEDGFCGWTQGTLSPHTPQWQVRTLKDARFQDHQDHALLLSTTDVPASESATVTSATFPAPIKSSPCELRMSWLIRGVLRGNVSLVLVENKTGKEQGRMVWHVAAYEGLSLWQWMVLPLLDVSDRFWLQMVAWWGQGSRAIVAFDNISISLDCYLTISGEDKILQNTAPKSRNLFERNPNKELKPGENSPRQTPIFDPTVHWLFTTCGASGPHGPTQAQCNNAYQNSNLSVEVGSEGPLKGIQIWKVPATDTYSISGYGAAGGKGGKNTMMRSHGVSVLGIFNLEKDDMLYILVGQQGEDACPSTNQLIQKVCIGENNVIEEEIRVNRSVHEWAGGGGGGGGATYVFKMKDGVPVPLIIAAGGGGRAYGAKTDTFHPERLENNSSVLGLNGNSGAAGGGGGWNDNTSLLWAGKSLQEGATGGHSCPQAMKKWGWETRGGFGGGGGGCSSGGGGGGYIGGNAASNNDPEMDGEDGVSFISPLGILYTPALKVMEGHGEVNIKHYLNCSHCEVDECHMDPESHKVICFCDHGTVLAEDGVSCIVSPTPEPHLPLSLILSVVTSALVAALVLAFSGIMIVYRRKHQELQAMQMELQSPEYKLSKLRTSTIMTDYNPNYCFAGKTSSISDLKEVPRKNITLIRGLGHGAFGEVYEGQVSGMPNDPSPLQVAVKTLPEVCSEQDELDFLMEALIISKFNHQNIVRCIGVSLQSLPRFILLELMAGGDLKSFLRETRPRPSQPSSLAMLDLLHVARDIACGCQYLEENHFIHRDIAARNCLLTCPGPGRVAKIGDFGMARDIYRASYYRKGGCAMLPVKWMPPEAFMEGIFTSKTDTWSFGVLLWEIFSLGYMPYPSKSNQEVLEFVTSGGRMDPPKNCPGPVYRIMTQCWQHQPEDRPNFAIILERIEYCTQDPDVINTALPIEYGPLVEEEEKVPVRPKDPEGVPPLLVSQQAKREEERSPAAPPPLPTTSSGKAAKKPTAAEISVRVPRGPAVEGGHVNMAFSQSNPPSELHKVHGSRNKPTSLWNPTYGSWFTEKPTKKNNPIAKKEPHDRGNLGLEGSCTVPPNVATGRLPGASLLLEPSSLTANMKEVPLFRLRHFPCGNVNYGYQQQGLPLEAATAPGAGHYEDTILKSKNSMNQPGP
Protocol: as §1, §2

[8] = molecular target: VEGFR2 (Homo sapiens (Human), UniProt P35968); assay: as above; type: biochemical; details: ATP 90 μM (Km)
Chain of VEGFR2 (P35968 20-1356): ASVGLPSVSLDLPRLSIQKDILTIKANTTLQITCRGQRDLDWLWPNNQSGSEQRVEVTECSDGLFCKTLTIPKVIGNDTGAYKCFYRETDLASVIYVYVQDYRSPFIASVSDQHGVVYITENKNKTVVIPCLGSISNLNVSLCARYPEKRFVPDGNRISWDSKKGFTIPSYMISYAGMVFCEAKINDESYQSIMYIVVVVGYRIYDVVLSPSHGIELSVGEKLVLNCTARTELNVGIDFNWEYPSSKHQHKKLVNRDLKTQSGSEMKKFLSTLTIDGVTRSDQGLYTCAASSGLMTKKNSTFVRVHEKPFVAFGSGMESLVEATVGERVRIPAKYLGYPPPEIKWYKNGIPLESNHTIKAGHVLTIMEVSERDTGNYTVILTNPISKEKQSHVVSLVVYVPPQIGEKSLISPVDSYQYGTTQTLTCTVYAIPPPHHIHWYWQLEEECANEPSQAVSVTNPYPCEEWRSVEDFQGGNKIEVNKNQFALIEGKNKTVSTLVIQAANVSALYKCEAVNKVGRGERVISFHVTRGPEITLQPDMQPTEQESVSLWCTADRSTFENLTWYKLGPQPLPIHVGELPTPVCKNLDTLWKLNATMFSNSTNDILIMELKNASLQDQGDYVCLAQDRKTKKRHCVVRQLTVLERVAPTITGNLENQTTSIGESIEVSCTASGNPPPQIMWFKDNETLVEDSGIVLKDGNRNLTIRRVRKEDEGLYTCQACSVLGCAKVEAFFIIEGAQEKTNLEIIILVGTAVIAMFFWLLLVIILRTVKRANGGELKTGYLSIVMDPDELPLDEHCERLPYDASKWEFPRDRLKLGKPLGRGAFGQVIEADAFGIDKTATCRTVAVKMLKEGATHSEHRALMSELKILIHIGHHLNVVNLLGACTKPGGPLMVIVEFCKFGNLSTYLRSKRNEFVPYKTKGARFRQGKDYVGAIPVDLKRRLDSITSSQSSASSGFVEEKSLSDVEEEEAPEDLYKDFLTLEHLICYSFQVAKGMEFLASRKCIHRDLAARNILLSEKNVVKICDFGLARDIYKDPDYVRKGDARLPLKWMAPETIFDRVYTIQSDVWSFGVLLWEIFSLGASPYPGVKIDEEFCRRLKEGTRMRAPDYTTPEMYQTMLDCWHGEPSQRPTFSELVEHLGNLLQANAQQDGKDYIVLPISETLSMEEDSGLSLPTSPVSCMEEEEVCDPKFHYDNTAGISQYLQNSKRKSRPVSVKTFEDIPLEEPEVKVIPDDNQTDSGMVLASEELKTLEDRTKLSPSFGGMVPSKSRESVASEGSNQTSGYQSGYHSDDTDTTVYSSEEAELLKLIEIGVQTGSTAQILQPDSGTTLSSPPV
Protocol: as §1, §2

[9] = tested on: colon cancer cell strain SW620; assay: In-vitro tumor cell proliferation inhibition, MTT; type: cell-based, human; details: 72 hours
Excerpt: (§3) The object of this assay was to test the inventive compounds for the inhibitory activity of in-vitro tumor cell proliferation. The MTT (tetreamethyl-azo-zole-salt) colorimetric method was used in this assay.
(§4) Human non-small cell lung carcinoma cell strains HCC827, PC-9, H1975 (EGFR L858R/T790M mutation) and H292 (EGFR WT), and other tumor type cell strains, including human acute myelogenous leukemia cell strain MV4-11, human chronic granulocytic leukemia cell strain K562, human squamous cell carcinoma cell strain A431, human breast carcinoma cell strains MDA-MB-468 and BT 474, human colon cancer cell strains SW480, HCT116 and SW620, human liver cancer cell strain Hep G2, human gastric cancer cell strain MK-45, and human malignant melanoma cell strain A375 used in this assay were all purchased from ATCC company, USA and kept in the laboratory. All of the above-mentioned non-small cell lung carcinoma cell strains and the breast carcinoma cell strain BT 474 were cultured with a RPMI-1640 complete culture medium containing 10% fetal bovine serum, 100 U/ml penicillin and 100 μg/ml streptomycin under 5% CO2 and at 37° C. The other cell strains were cultured with a DMEM complete culture medium containing 10% fetal bovine serum (having a MV4-11 cell content of 20%), 100 U/ml penicillin and 100 μg/ml streptomycin under 5% CO2 and 37° C.
(§5) A cell suspension having a cell concentration of 1-2×10^4 cells/ml was treated with a complete cell culture solution to adjust the cell concentration, wherein the cell concentrations for HCC827 and MV4-11 were adjusted to 6×10^4 cells/ml and 1×10^5 cells/ml respectively. The cell suspension was inoculated in a 96-well plate with 200 μl cell suspension/well and cultured overnight. Next day, the supernatant was drawn off and discarded. Then, the cells were treated with the tested compounds in a gradient concentration respectively. In the meanwhile, a negative control group free of the drug substance and an isovolumetric solvent control group (having a DMSO concentration of 1%) were used. The triplicate wells were used for each of dose groups. The culturing was conducted at 37° C. under 5% CO2. After 72 hours, […] having a concentration of 5 mg/ml was added to each of wells. The culturing was further conducted for 2-4 hours. The supernatant was discarded. Then […] was added to each of wells. The contents in the well were mixed homogenously by oscillation for 15 minutes. The absorbance (A) value was measured with a microplate reader at λ=570 nm (the A value is in the direct proportion to the number of living cells) and averaged. The relative cell proliferation inhibitory rate is (A570 control-group−A570 dose-group)/A570 control-group×100%. The assay was repeated for at least three times. The data was expressed as number average. The statistical data were analyzed using t-test. P<0.05 was considered significant. The cell proliferation inhibition of the following compounds was expressed as IC50 or inhibitory rate.

[10] = tested on: gastric cancer cell strain MK-45; assay: In-vitro tumor cell proliferation inhibition, MTT; type: cell-based, human; details: 72 hours, read-out: MK45 (IC50)
Excerpt: as §3, §4, §5

[11] = tested on: colon cancer cell strain HCT116; assay: In-vitro tumor cell proliferation inhibition, MTT; type: cell-based, human; details: 72 hours
Excerpt: as §3, §4, §5

[12] = tested on: acute myelogenous leukemia cell strain MV4-11; assay: In-vitro tumor cell proliferation inhibition, MTT; type: cell-based, human; details: 72 hours
Excerpt: as §3, §4, §5

[13] = tested on: breast carcinoma cell strain MDA-MB-468; assay: In-vitro tumor cell proliferation inhibition, MTT; type: cell-based, human; details: 72 hours
Excerpt: as §3, §4, §5

[14] = tested on: chronic granulocytic leukemia cell strain K562; assay: In-vitro tumor cell proliferation inhibition, MTT; type: cell-based, human; details: 72 hours
Excerpt: as §3, §4, §5

[15] = tested on: liver cancer cell strain Hep G2; assay: In-vitro tumor cell proliferation inhibition, MTT; type: cell-based, human; details: 72 hours, read-out: HEPG2 (IC50)
Excerpt: as §3, §4, §5

[16] = tested on: squamous cell carcinoma cell strain A431; assay: In-vitro tumor cell proliferation inhibition, MTT; type: cell-based, human; details: 72 hours
Excerpt: as §3, §4, §5

[17] = tested on: malignant melanoma cell strain A375; assay: In-vitro tumor cell proliferation inhibition, MTT; type: cell-based, human; details: 72 hours
Excerpt: as §3, §4, §5

[18] = tested on: colon cancer cell strain SW480; assay: In-vitro tumor cell proliferation inhibition, MTT; type: cell-based, human; details: 72 hours
Excerpt: as §3, §4, §5

[19] = tested on: breast carcinoma cell strain BT474; assay: In-vitro tumor cell proliferation inhibition, MTT; type: cell-based, human; details: 72 hours
Excerpt: as §3, §4, §5

[20] = tested on: non-small cell lung carcinoma cell strain HCC827; assay: In-vitro tumor cell proliferation inhibition, MTT; type: cell-based, human; details: 72 hours
Protocol: as §3
(§6) All of the above-mentioned non-small cell lung carcinoma cell strains and the breast carcinoma cell strain BT 474 were cultured with a RPMI-1640 complete culture medium containing 10% fetal bovine serum, 100 U/ml penicillin and 100 μg/ml streptomycin under 5% CO2 and at 37° C. The other cell strains were cultured with a DMEM complete culture medium containing 10% fetal bovine serum (having a MV4-11 cell content of 20%), 100 U/ml penicillin and 100 μg/ml streptomycin under 5% CO2 and 37° C.
as §5

[21] = tested on: non-small cell lung carcinoma cell strain H1975 (EGFR L858R/T790M mutation); assay: In-vitro tumor cell proliferation inhibition, MTT; type: cell-based, human; details: 72 hours
Protocol: as §3, §6, §5

[22] = tested on: non-small cell lung carcinoma cell strain PC-9 (EGFR delE746-A750 deletion mutation); assay: In-vitro tumor cell proliferation inhibition, MTT; type: cell-based, human; details: 72 hours
Protocol: as §3, §6, §5

[23] = tested on: non-small cell lung carcinoma cell strain H292 (EGFR WT); assay: In-vitro tumor cell proliferation inhibition, MTT; type: cell-based, human; details: 72 hours
Protocol: as §3, §6, §5

Chain of BTK (Q06187 whole entry): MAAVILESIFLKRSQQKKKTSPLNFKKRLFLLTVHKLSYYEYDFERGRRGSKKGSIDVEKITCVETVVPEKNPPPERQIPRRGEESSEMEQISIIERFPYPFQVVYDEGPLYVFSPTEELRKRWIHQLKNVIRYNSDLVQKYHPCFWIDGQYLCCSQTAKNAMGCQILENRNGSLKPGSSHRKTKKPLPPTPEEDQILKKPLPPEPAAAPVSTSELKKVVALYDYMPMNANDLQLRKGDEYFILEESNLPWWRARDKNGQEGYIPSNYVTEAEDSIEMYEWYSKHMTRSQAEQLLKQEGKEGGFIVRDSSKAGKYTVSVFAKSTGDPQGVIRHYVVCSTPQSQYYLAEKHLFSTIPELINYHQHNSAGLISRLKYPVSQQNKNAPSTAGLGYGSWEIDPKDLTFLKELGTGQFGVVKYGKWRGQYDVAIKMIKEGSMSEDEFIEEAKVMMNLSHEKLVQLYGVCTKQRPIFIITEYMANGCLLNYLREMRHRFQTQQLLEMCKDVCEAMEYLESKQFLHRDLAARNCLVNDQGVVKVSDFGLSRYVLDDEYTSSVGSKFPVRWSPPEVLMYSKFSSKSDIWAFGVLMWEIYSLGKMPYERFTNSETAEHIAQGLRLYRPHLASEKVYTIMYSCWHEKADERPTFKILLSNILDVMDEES

| Compound | The kinase activity inhibitory rate (%) by the tested compounds at 10 μM BTK [1] [%] | The kinase activity inhibitory rate (%) by the tested compounds at 10 μM PDGFRα [2] [%] | The kinase activity inhibitory rate (%) by the tested compounds at 10 μM MET [3] [%] | The kinase activity inhibitory rate (%) by the tested compounds at 10 μM c-KIT [4] [%] | The kinase activity inhibitory rate (%) by the tested compounds at 10 μM FLT3 [5] [%] | The kinase activity inhibitory rate (%) by the tested compounds at 10 μM c-SRC [6] [%] | The kinase activity inhibitory rate (%) by the tested compounds at 10 μM ALK [7] [%] | IC50 [8] [µM] | IC50 [9] [µM] | IC50 [10] [µM] | IC50 [11] [µM] | IC50 [12] [µM] | IC50 [13] [µM] | IC50 [14] [µM] | IC50 [15] [µM] | IC50 [16] [µM] | IC50 [17] [µM] | IC50 [18] [µM] | IC50 [19] [µM] | IC50 [20] [µM] | also measured |
| --- | --- | --- | --- | --- | --- | --- | --- | --- | --- | --- | --- | --- | --- | --- | --- | --- | --- | --- | --- | --- | --- |
| CC(C)n1c(Nc2ccc(OCc3cccc(F)c3)c(Cl)c2)nc2cnc(Nc3ccc(N4CCN(C)CC4)cc3)nc21 [Compounds 8-19] | 71 | 34 | 97 | 12 | 43 | 97 | 90 | > 1 | 1.99 | 1.01 | > 1 | 4.78 | 9.98 | 2.79 | 5.42 | 9.32 | 1.66 | > 10 | 4.99 | 0.912 | IC50 [21]: 7.32 µM; IC50 [22]: 0.459 µM; IC50 [23]: 0.316 µM |
| CN1CCN(c2ccc(Nc3ncc4nc(Nc5ccccc5)n(C5CCCC5)c4n3)cc2)CC1 [Compounds 8-26] | 99 | 95 | 86 | 94 | 86 | 99 | 71 | 0.007 | 0.282 | > 1 | 0.239 | 0.093 | 0.299 | 0.12 | 6.25 | 1.05 | 0.378 | 3.44 | 0.107 | 0.0011 | IC50 [21]: 0.369 µM; IC50 [22]: 0.0002 µM; IC50 [23]: 0.0107 µM |
